Where two headings read alike, the source gives them in different places.
Tests used:
[1] = Solubility of salts in water (HPLC); format: physicochemical
Method: The formulator can determine the solubility of the pharmaceutically acceptable salts of the disclosed inhibitors by any method desirable. The following is a non-limiting example of a procedure for evaluating the solubility of a salt of a disclosed inhibitor. A suspension of tert-butyl-{[1-(4-chlorobenzyl)-3-hydroxy-2-oxo-1,2-dihydropyridin-4-yl]methyl}-piperazine-1-carboxylate methanesulfonate (26.6 mg) in distilled deionized water (3.0 mL) is sonicated for 20 min with water bath temperature under 25° C. The suspension is filtered to remove any insoluble salt. The clear filtrate solution (200 μL) is diluted with distilled deionized water (800 μL) and subjected to HPLC analysis. The following are results for the pharmaceutically acceptable salts outlined in Table VII above.

[2] = test system: phosphoglycerate kinase (PGK) expression; test: PGK expression in murine embryonic fibroblasts; format: cell-based; conditions: wild type murine embryonic fibroblasts; 1 μM, 10 μM (FIG. 12)
Method: FIG. 11 depicts the up regulation of phosphoglycerate kinase (PGK) expression in wild type murine embryonic fibroblasts as a result of treatment with compound a compound disclosed in Table VIII at dosages of 1 μM (E), 10 μM (F), and 50 μM (G) vs. wild type control (H) and the lack of up regulation of PGK expression in HIF-1 knock out cells as a result of treatment with a compound disclosed in Table VIII at dosages of 1 μM (A), 10 μM (B), and 50 μM (C) and HIF-1 knock out control (D). Both cell types were treated for 7 hours.

CC(C)(C)OC(=O)N1CCN(Cc2ccn(Cc3ccc(Cl)cc3)c(=O)c2O)CC1 [Compound A41, tert-butyl 4-{[1-(4-chlorobenzyl)-3-hydroxy-2-oxo-1,2-dihydropyridin-4-yl]methyl}piperazine-1-carboxylate]
Solubility ([1]; distilled deionized water, sonicated 20 min, under 25° C., HPLC, listed as Free base): ~1 µg/mL

CC(C)(C)OC(=O)N1CCN(Cc2ccn(Cc3ccc(Cl)cc3)c(=O)c2O)CC1 [hydrogensulfonate, tert-butyl-{[1-(4-chlorobenzyl)-3-hydroxy-2-oxo-1,2-dihydropyridin-4-yl]methyl}-piperazine-1-carboxylate]
Solubility [1]: 13200 µg/mL

O=c1c(O)cccn1Cc1cccc(Cl)c1 [Compound F2, 1-(3-chlorobenzyl)-3-hydroxypyridin-2(1H)-one]
up regulation of phosphoglycerate kinase (PGK) expression [2]: up regulation
